Patent publication US5576174A, “Catalytic antibody with primary amine cofactor” (The Scripps Research Institute, priority 1995, dated 1996)

Tests used:
[1] = system: catalytic antibody 72D4 (anti-2, monoclonal antibody raised against quaternary piperidinium hapten 2); test: Antibody 72D4 catalysed aldol addition of acetone to aldehyde 10a giving 11a, amine 7 as cofactor (RP-HPLC); format: biochemical; details: for Km: random bimolecular model for amine 7 and acetone; for effective molarity kcat/kapp (7): versus background reaction catalysed by 7 alone, aldehyde 10a at 200 mM
Protocol: The aldol reaction of 10a and acetone to 11a with amine 7 as cofactor was followed by direct measurement of the formation of 11a by reverse-phase HPLC. The observed background reaction was first order in acetone (0.5% to 10% v/v) and aldehyde 10a (100-2000 mM), and was also first order in catalyst, either the amine cofactor 7 (50-1500 mM) as free base or hydroxide. The corresponding rate constants are kapp (7) (third order) and kapp (OH^-) (second order) for the apparent rate constant for each process at different pH, and k(7) and kOH^- are the third order rate constants for catalysis by amine 7 as free base and hydroxide, respectively (FIG. 1).
For acetone and aldehyde 10a, the background kuncat is the second order rate constant of their apparent bimolecular reaction, catalyzed by both hydroxide and amine 7 ([7]=0.2 mM and 0.4 mM, respectively).
Aldehydes 10a-10e were used as 25 mM stock solutions in 1:1 acetonitrile/water of the RP-HPLC purified samples. Cofactor 7 was used as 25 mM stock solution in pure water of the RP-HPLC purified trifluoroacetate salt. Antibody 72D4 was purified to homogeneity (SDS PAGE) by ion exchange and Protein G chromatography as described before,^4a at 8-12 mg/mL stock solutions in either bicine (50 mM, pH 8.0) or phosphate (50 mM, pH 7.4) with 100 mM NaCl.
The setup for the kinetics of FIG. 2 is representative: a stock solution (1.8 mL) containing the antibody ([…]) and acetone (1.11% v/v) in 50 mM bicine, 100 mM NaCl, pH 8.0 was separated into four portions of […]. To each was added 3.6 mL of a 25 mM stock solution of each of the aldehydes 10a to 10d. Each […] portion was further separated into four 90 mL portions and 10 mL of solutions of amine 7 in 50 mM bicine, 100 mM NaCl (1 mM, 2 mM, 4 mM, 8 mM) were added. Finally, 50 mL of each 100 mL sample was added to 0.5 mL of a 25 mM stock solution of hapten 12 in water. In each manipulation, the samples were vigorously shaken using a Vortex shaker to ensure homogeneity.

[2] = system: catalytic antibody 72D4 (anti-2, monoclonal antibody raised against quaternary piperidinium hapten 2); test: Antibody 72D4 catalysed formation of α-aminonitrile 17 from amine 7, acetone and cyanide; format: biochemical
Protocol: Conditions: 50 mM bicine, 0.2M NaCN, pH 9.0, 20° C. […] The reaction was initiated by addition of a concentrated stock solution of either amine 7 or buffered NaCN (no difference was noted). As above, pairs of identical antibody solutions, with and without hapten 12 as inhibitor, were used for measuring the background and catalyzed reaction rates, respectively. 15 mL samples were quenched at 45 sec intervals by mixing with 15 mL 0.5N TFA in water, immediately frozen, and later analyzed by RP-HPLC (C-18 as above, 92.5% H2 O, 7.5% CH3 CN, tR (17)=7.8 minutes) against an internal standard (4-hydroxy-benzoic acid, tR =9.4 minutes). […] The background rate kuncat was derived from the inhibited samples (V vs. [S], 6 points, r^2 =1.0). KM and Vmax were obtained from the Lineweaver-Burk plot of 1/V vs. 1/[S] as above (50, 100, 200, 400, 800, 1600 mM 7, 6 points, r^2 =0.98).

**Q.** Which results are given for CC(=O)Nc1ccc(CC(C)C=O)cc1 (racemic) [aldehyde 10a, 4-(3'-oxo-2'-methyl-prop-1'-yl)-acetanilide]?
**A.** rate acceleration kcat/kuncat (aldehyde 10a) ([1]; apparent effective molarity, aldehyde 10a varied, [7]=0.4 mM, table 1): 102 M; kcat ([1]; pH 8.0, antibody-acetone-amine complex reacting with aldehyde 10a (200 mM fixed)): 0.014 M⁻¹ s⁻¹; kcat ([1]; pH 9.0, antibody-acetone-amine complex reacting with aldehyde 10a): 0.053 M⁻¹ s⁻¹

**Q.** Which “rate acceleration kcat/kuncat (acetone)” value ([1]; apparent effective molarity, acetone varied, [7]=0.2 mM, table 1) does the source give for CC(C)=O [acetone] here?
**A.** The value was 123 M.

**Q.** And the Km ([1]; pH 8.0, 200 mM fixed aldehyde 10a, read-out: KM (acetone))?
**A.** Its Km is 19000 µM.

**Q.** NCc1ccc(C(=O)NCCO)cc1 [amine 7, N(hydroxyethyl)-4(aminomethyl)-benzamide] was tested. Which kcat ([2]; pH 9.0, 1% v/v acetone, 0.2M CN-, 20° C., amine 7 varied) did it give?
**A.** Its kcat is 0.012 s⁻¹.

**Q.** What about the Km ([2]; pH 9.0, 1% v/v acetone, 0.2M CN-, 20° C., amine 7 varied 50-1600 mM) of the same compound?
**A.** Its Km is 130 µM.

**Q.** What about the Km ([1]; pH 8.0, 200 mM fixed aldehyde 10a, read-out: KM (7)) of the same compound?
**A.** Its Km is 45 µM.

**Q.** What about the “effective molarity kcat/kapp (7)” value ([1]; pH 8.0) of the same compound?
**A.** Its value is 370 M.

**Q.** And the Km ([1]; pH 9.0, read-out: KM (7))?
**A.** Its Km is 95 µM.

**Q.** What about the “effective molarity kcat/kapp (7)” value ([1]; pH 9) of the same compound?
**A.** Its value is 440 M.

**Q.** And the “rate acceleration kcat/kuncat (cofactor 7)” value ([1]; specific activation of the cofactor upon binding to the antibody, table 1)?
**A.** The value was 950.

**Q.** Which “inhibition of catalysis by hapten 12” value ([2]; formation of α-aminonitrile 17) does the source give for C[N+]1(Cc2ccc(C(=O)NCCO)cc2)CCCCC1 [hapten 12, reference compound] here?
**A.** The value was “quantitatively inhibited”.

**Q.** And the “inhibition of catalytic activity by addition of hapten 12” value ([1]; 250 mM hapten 12 in the assay set-up)?
**A.** Its value is “quantitatively inhibited”.
